Measurements published in paper PMC6237811, “MutT homologue 1 (MTH1) catalyzes the hydrolysis of mutagenic O6-methyl-dGTP” (Nucleic Acids Research, 2018).

Columns and labels:
Format in all cases: biochemical
[1] = target: T1, human MTH1 (hMTH1, NUDT1) (Homo sapiens, UniProt P36639); assay: Michaelis-Menten kinetics of hydrolysis by purified MTH1 (PPiLight)
[2] = target: T2, rat MTH1 (rnMTH1, rnNUDT1) (Rattus norvegicus, UniProt P53369); assay: hydrolysis by […] purified enzyme, PPiLight assay, […] substrate
T2 construct: gene Nudt1

[3] = target: T1, human MTH1 (hMTH1, NUDT1); assay: Michaelis-Menten kinetics of hydrolysis by purified MTH1 (PPiLight); HPLC and LC-MS of product
[4] = target: T3, zebrafish MTH1 (zfMTH1) (Danio rerio, UniProt Q7ZWC3); assay: hydrolysis by purified zfMTH1, malachite green and PPiLight assays
T3 construct: gene nudt1

[5] = target: Arabidopsis thaliana NUDT1 (atNUDT1, atNUDX1) (Arabidopsis thaliana, UniProt Q9CA40); assay: hydrolysis by […] purified enzyme, PPiLight assay, […] substrate
[6] = target: T4, mouse MTH1 (mmMTH1, mmNUDT1) (Mus musculus, UniProt P53368); assay: as above
T4 construct: gene Nudt1

Arabidopsis thaliana NUDT1 (atNUDT1, atNUDX1), sequence (Q9CA40 2-147): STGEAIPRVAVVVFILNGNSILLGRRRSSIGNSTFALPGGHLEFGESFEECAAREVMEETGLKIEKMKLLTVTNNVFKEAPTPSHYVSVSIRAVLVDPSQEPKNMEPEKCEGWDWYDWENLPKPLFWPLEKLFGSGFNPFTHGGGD
T3 sequence (Q7ZWC3 whole entry): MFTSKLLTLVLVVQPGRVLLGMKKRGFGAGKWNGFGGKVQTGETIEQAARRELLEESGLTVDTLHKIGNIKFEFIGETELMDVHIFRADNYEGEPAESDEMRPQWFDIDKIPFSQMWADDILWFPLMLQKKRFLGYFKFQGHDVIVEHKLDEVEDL

Compound: COc1nc(N)nc2c1ncn2[C@@H]1O[C@H](COP(=O)(O)OP(=O)(O)OP(=O)(O)O)[C@@H](O)[C@H]1O [O6-methyl-GTP]
- Km [1]: 236 ± 44 µM

Compound: COc1nc(N)nc2c1ncn2[C@H]1C[C@H](O)[C@@H](COP(=O)(O)OP(=O)(O)OP(=O)(O)O)O1 [O6-methyl-dGTP]
- hydrolysis by 1.5 nM purified enzyme, PPiLight assay, 75 μM substrate [2]: MTH1 homologues from all tested species but E. coli were found to catalyze the hydrolysis of O6-methyl-dGTP
- Km [3]: 15.6 ± 0.2 µM
- hydrolysis by purified zfMTH1, malachite green and PPiLight assays [4]: The zfMTH1 enzyme displays considerable activity with O6-methyl-dGTP with a clear preference over dGTP
- hydrolysis by 1.5 nM purified enzyme, PPiLight assay, 75 μM substrate [5]: MTH1 homologues from all tested species but E. coli were found to catalyze the hydrolysis of O6-methyl-dGTP
- hydrolysis by 1.5 nM purified enzyme, PPiLight assay, 75 μM substrate [6]: MTH1 homologues from all tested species but E. coli were found to catalyze the hydrolysis of O6-methyl-dGTP
